Literature values, collected in article PMC7455853 (European Journal of Medicinal Chemistry, 2020).
Where a name gives a salt, the structure may show the parent alone. Values belong to the compound of their own block, whether it stands above or below them.

Tests used:
[1] = tested on: tubulin (colchicine binding); details: at 5 μM
NF–Y binding to the ICB2 = details: EMSA
HIF-1 = details: read-out: HIF-1 inhibitory activity IC50; HeLa cells

IC50 (AURKA): 1.99 µM
IC50 (EGFR): 0.00376 µM
SMILES: Brc1cccc(Nc2ncnc3[nH]ccc23)c1 [compound 8]

DNA binding affinity (ICB2 site): 0.5 µM
doses giving dose-dependent inhibition of NF–Y binding to the ICB2 (NF–Y binding to the ICB2): ≥ 3 µM
SMILES: COc1ccc(-c2nc3ccc(C(=O)Nc4cn(C)c(C(=O)Nc5cc(C(=O)NCCCN(C)C)n(CCCN)c5)n4)cc3[nH]2)cc1 [compound 19a]

IC50 (HIF-1): 10.8 µM
SMILES: O=C(Cc1ccc(O)cc1)n1cc(-c2ccc(O)cc2)c(-c2ccc(O)cc2)c1 [neolamellarin A]

Further lines, the compound ahead of its results:

SMILES: COc1ccc(/C=C\c2cc(OC)c(OC)c(OC)c2)cc1O [CA-4, combretastatin A-4]
inhibition of colchicine binding [1]: 98%

SMILES: COc1ccc2cc3[n+](cc2c1OC)CCc1cc2c(cc1-3)OCO2 [berberine hydrochloride]
IC50 (SrtA): 120 µM
